Assay results as given in patent US7687489B2, “Agent for treatment of cerebral ischemic diseases” (Ono Pharmaceutical Co., Ltd., priority 2001, dated 2010).

Columns and labels:
[1] = tested on: thrombin-induced focal cerebral ischemic model; test: Thrombin-induced focal cerebral ischemic model: survival and neurological symptom score; type: in vivo, male Wistar rats
Protocol: Twenty male Wistar rats (8-weeks age) were used as one group. The rats were anesthetized with halothane, followed by incision and then subjected to carotid artery shunting. A polyethylene catheter containing thrombin (10 international units) was catheterized into the carotid artery, and […] of blood was sucked and reserved in the catheter for 10 minutes. Then, thrombus formed in the catheter was infused into the carotid artery together with thrombin (J. Cereb. Blood Flow Metab., 17, 123 (1997)).
The neurological symptoms of said rats were scored according to the method as described in Brain Res., 452, 323 (1988). The evaluation of score was carried out at 6 hours, 24 hours, 48 hours and 72 hours after infusion of thrombin, and the scores were accumulated. The survival period was determined by monitoring surviving or dead rats at intervals of one hour for the first 72 hours after the infusion of thrombin.
From forty minutes after thrombin infusion, t-PA (Activacin 100,000 international units, product of Kyowa Hakko Kogyo Co., Ltd.) was continuously administered in an amount of 33 μL/min to the anesthetized rats for 15 minutes. (R)-2-propyloctanoic acid (hereinafter referred to as compound A) in an amount of 10 mg/mL/kg was administered through tail vein of the rats three times at 6 hours, 24 hours and 48 hours after the infusion of thrombin.

dogs = details: dog, in vivo, 100 mg/kg
Source text: The toxicity of the astrocyte function-improving agent of the present invention is sufficiently very low and has been confirmed to be safe enough for pharmaceutical use.

[2] = accumulated score, rats surviving 72 h, average ± standard error

Q: `CCCCCC[C@@H](CCC)C(=O)O` [Compound A, (R)-2-propyloctanoic acid] was tested. Which “Survival rate after 72 hours” value ([1]; 72 hours after thrombin infusion, 20 rats per group, * p<0.05 vs control (Log-rank test)) did it give?
A: 60.0%*^)

Q: What about the “No. of surviving rats” value ([1]; 72 hours after thrombin infusion, 20 rats per group, t-PA infused from 40 min for 15 min, compound A 10 mg/mL/kg i.v. at 6, 24, 48 h) of the same compound?
A: 12

Q: And the “Neurological symptom score, 0 to 6 hours” value [1, 2]?
A: 3.4 ± 0.1

Q: And the “Neurological symptom score, 0 to 24 hours” value [1, 2]?
A: 3.3 ± 0.1

Q: And the “Neurological symptom score, 0 to 48 hours” value [1, 2]?
A: 3.3 ± 0.1

Q: What about the “Neurological symptom score, 0 to 72 hours” value [1, 2] of the same compound?
A: 3.2 ± 0.2

Q: And the “Death after single intravenous administration” value (dogs)?
A: no death was observed
